The values that follow come from patent US20240247030A1, “TARGETED DELIVERY OF TERTIARY AMINE-CONTAINING DRUG SUBSTANCES” (Seagen Inc., priority 2014, published 2024).

Common to all, as to format: cell-based
The subject of data set [1] is HL60/RV MDR+ AML cells. In words: In vitro cytotoxicity (CellTiter-Glo, 96 h). To be noted: for IC50: Homo sapiens, HL-60, 96 h, read-out: IC50, HL60/RV, MDR+ AML, Table 6, free drug, 96 hours. As for the experimental part:
(§1) In vitro assays. Cells cultured in log-phase growth were seeded for 24 h in 96-well plates containing 150 μL RPMI 1640 supplemented with 20% FBS. Serial dilutions of antibody-drug conjugates in cell culture media were prepared at 4× working concentrations; 50 μL of each dilution was added to the 96-well plates. Following addition of ADC, cells were incubated with test articles for 4 d at 37° C. After 96 h, growth inhibition was assessed by CellTiter-Glo™ (Promega, Madison, W1) and luminescence was measured on a plate reader. The IC50 value, determined in triplicate, is defined here as the concentration that results in a 50% reduction in cell growth relative to untreated controls.
In general terms: Cellular ATP, detected with luciferase, serves as a proxy for viable cell number.

In data set [2] the test system is Karpas299 ALCL cells. In words: In vitro cytotoxicity (CellTiter-Glo, 96 h). To be noted: for IC50: Homo sapiens, KARPAS-299, 96 h, read-out: IC50, Karpas299, ALCL, Table 6, free drug, 96 hours. As for the experimental part:
as §1

The test system of data set [3] is L428 MDR+ HL cells. Description: In vitro cytotoxicity (CellTiter-Glo, 96 h). The settings on record: Homo sapiens, L-428, 96 h, read-out: IC50, L428, MDR+ HL, Table 6; free drug, 96 hours.
Data set [4] relates to HL60 AML cells. In words: cells. The settings on record: for IC50: Homo sapiens, HL-60, 96 h, read-out: IC50, HL60, AML, Table 6, free drug, 96 hours. How it is done:
as §1

In data set [5] the test system is L540cy Hodgkin lymphoma cells. Description: In vitro cytotoxicity (CellTiter-Glo, 96 h). To be noted: for IC50: L540cy, 96 h, read-out: IC50, L540cy, HL, Table 6, free drug, 96 hours.
Data set [6] has as its system panel of cell lines. In words: In vitro cytotoxicity, statements across a panel of cell lines. As for the experimental part: as §1
The test system of data set [7] is DEL ALCL cells. To be noted: Table 11; cAC10 conjugate, 8-drugs/mAb.
[8] abbreviates: Table 15, cOKT-9 conjugate, 8-drugs/Ab.

In brackets after ≈: the same amount, converted by molar mass. *1 amine or outer side, *2 acyl side, *3 side chain or, on linkers, in order; H or OH if unused. Where a SMILES comes first, the peptide text is derived from it. [ ]: non-standard residue; d: D form. The star is where a group is joined. Dolaproine = CO[C@@H]([C@@H]1CCCN1)[C@@H](C)C(=O)O; Hexanoyl(6-maleimido) = O=C1C=CC(=O)N1CCCCCC(=O)*; Dil = CC[C@H](C)[C@H](NC)[C@@H](CC(=O)O)OC; PABC = O=C(OCc1ccc(N[*:1])cc1)[*:2]; Cit = NC(=O)NCCC[C@H](N)C(=O)O; NMeV = CN[C@H](C(=O)O)C(C)C A value given as a limit tells only on which side of the number the result lay.

On to `CCCC(=O)O[C@H](C[C@H](C(C)C)N(C)C(=O)[C@@H](NC(=O)[C@H]1CCCCN1C)[C@@H](C)CC)c1nc(C(=O)N[C@@H](Cc2ccccc2)C[C@H](C)C(=O)O)cs1` [Compound 156, (2S,4R)-4-(2-((1R,3R)-1-(butyryloxy)-3-((2S,3S)—N,3-dimethyl-2-((R)-1-methylpiperidine-2-carboxamido)pentanamido)-4-methylpentyl)thiazole-4-carboxamido)-2-methyl-5-phenylpentanoic acid], for which the IC50 worked out at 6 nM in data set [1]; 0.02 nM in data set [2]; 0.12 nM in data set [3]; 0.1 nM in data set [4]; 0.1 nM in data set [5].
On to `CC[C@H](C)[C@H](NC(=O)[C@H]1CCCCN1C)C(=O)N(C)[C@H](C[C@@H](OC(=O)CC(C)(C)C)c1nc(C(=O)N[C@@H](Cc2ccccc2)C[C@H](C)C(=O)O)cs1)C(C)C` [Compound 159, (2S,4R)-4-(2-((1R,3R)-3-((2S,3S)—N,3-dimethyl-2-((R)-1-methylpiperidine-2-carboxamido)pentanamido)-1-((3,3-dimethylbutanoyl)oxy)-4-methylpentyl)thiazole-4-carboxamido)-2-methyl-5-phenylpentanoic acid], for which the “potency loss relative to tubulysin M” value in data set [6] (free drug, across the cell lines of Table 6) is 5-47 fold.
On to `CC[C@H](C)[C@H](NC(=O)[C@H]1CCCCN1C(=O)CCCCCN1C(=O)C=CC1=O)C(=O)N(C)[C@H](C[C@@H](OC)c1nc(C(=O)N[C@@H](Cc2ccccc2)C[C@H](C)C(=O)O)cs1)C(C)C` [Compound 172, (2S,4R)-4-(2-((1R,3R)-3-((2S,3S)-2-((R)-1-(6-(2,5-dioxo-2,5-dihydro-1H-pyrrol-1-yl)hexanoyl)piperidine-2-carboxamido)-N,3-dimethylpentanamido)-1-methoxy-4-methylpentyl)thiazole-4-carboxamido)-2-methyl-5-phenylpentanoic acid], for which the “cytotoxic activity in words, conjugates on CD30+ lymphoma cell lines” value in data set [6] (conjugate of the named Drug Linker or named ADC) was “inactive”. In addition, in data set [2] (Table 11, cAC10 conjugate of the Drug-Linker, 8-drugs/mAb), the “IC50, Karpas299, ALCL” value is more than 1 mg/L. In addition, the “IC50, L540cy, HL” value in data set [5] (Table 11, cAC10 conjugate, 8-drugs/mAb) was more than 1 mg/L. Further, in data set [7], the “IC50, DEL, ALCL” value is more than 1 mg/L.
Consider `CC[C@H](C)[C@H](NC(=O)[C@H]1CCCCN1C)C(=O)N(C)[C@H](C[C@@H](OC(=O)C(C)C)c1nc(C(=O)N[C@@H](Cc2ccccc2)C[C@H](C)C(=O)O)cs1)C(C)C` [Compound 157, (2S,4R)-4-(2-((1R,3R)-3-((2S,3S)—N,3-dimethyl-2-((R)-1-methylpiperidine-2-carboxamido)pentanamido)-1-(isobutyryloxy)-4-methylpentyl)thiazole-4-carboxamido)-2-methyl-S-phenylpentanoic acid], for which the IC50 came out at 3 nM in data set [1]; 0.011 nM in data set [2]; 0.05 nM in data set [3]; 0.08 nM in data set [4]; 0.04 nM in data set [5].
On to `CC[C@H](C)[C@@H]([C@@H](CC(=O)N1CCC[C@H]1[C@H](OC)[C@@H](C)C(=O)N[C@@H](Cc1ccccc1)C(=O)O)OC)N(C)C(=O)[C@@H](NC(=O)[C@H](C(C)C)N(C)C(=O)OCc1ccc(NC(=O)[C@H](CCCNC(N)=O)NC(=O)[C@@H](NC(=O)CCCCCN2C(=O)C=CC2=O)C(C)C)cc1)C(C)C` [Compound 193, MC-Val-Cit-PABC-MMAF, reference compound] ({Hexanoyl(6-maleimido)}-V[Cit][PABC][NMeV]V[Dil][Dolaproine]F-OH), for which the “IC50, HL60/RV, MDR+ AML” value in data set [1] (setting [8]) was 0.015 mg/L (≈ 0.0113 µM). For the same compound, the “IC50, HL60, AML” value in data set [4] (setting [8]) came out at 0.033 mg/L (≈ 0.0248 µM).
